Results taken from US20240109917A1 (ACTELION PHARMACEUTICALS LTD, priority 2020, published 2024).

molecular target: PDGFRβ (Rattus norvegicus (Rat), UniProt Q05030); assay: PDGFRβ Cellular Assay (PDGFRb P-Y751 HTRF in A10 cells stimulated with PDGF-BB); format: cell-based; details: PDGFR Cellular IC50
How it was run: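 Rat A10 cells, plated overnight, were treated with compound for 3 hours, then stimulated with PDGF-BB (working stock 100 ng/mL in 10% FBS medium). After lysis, PDGFRβ P-Y751 was detected by HTRF.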

PDGFRβ, sequence (Q05030 32-1097): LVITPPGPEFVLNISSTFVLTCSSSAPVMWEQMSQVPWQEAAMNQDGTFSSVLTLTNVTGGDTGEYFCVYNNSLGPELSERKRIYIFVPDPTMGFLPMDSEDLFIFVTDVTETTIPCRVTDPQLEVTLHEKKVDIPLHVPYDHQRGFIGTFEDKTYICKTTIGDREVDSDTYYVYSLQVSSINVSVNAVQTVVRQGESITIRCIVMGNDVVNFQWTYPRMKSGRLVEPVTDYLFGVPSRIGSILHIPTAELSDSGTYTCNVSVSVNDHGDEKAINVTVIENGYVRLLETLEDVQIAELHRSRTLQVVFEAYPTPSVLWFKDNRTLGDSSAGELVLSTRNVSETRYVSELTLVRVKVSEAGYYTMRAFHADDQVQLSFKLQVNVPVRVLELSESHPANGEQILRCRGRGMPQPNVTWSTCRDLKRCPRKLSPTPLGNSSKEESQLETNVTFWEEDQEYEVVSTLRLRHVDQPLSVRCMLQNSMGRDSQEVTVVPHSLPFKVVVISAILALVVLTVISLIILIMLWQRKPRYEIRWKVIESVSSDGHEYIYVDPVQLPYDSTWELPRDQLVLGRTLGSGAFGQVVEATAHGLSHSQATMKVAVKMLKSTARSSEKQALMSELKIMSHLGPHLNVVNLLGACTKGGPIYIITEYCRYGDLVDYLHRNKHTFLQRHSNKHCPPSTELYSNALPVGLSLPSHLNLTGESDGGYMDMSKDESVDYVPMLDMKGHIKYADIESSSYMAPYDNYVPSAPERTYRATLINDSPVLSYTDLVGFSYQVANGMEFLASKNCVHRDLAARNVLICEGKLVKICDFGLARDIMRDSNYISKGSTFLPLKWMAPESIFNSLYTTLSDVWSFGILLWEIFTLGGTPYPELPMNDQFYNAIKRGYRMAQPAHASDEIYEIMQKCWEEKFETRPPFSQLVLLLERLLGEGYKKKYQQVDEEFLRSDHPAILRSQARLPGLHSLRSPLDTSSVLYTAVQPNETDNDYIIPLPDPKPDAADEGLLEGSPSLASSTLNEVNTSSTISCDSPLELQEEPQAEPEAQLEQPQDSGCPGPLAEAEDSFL

| Structure (SMILES) | IC50 [nM] |
| --- | --- |
| Cc1cc(C(=O)NCC(C)(C)N2CCCC2)sc1NC(=O)c1cnn2cc(-c3cnn(C)c3)sc12 [Example 202, 2-(1-methyl-1H-pyrazol-4-yl)-N-(3-methyl-5-((2-methyl-2-(pyrrolidin-1-yl)propyl)carbamoyl)thiophen-2-yl)pyrazolo[5,1-b]thiazole-7-carboxamide] | > 3000 |
| Cc1ncc(NC(=O)CCCN2CCC23CCC3)cc1NC(=O)c1cnn2cc(-c3cnn(C)c3)sc12 [Example 215, N-(5-(4-(1-azaspiro[3.3]heptan-1-yl)butanamido)-2-methylpyridin-3-yl)-2-(1-methyl-1H-pyrazol-4-yl)pyrazolo[5,1-b]thiazole-7-carboxamide] | 80.1 |
| COCCn1cc(-c2cn3ncc(C(=O)Nc4cc(NC(=O)CCCN5CCC[C@@H]5C)cnc4C)c3s2)cn1 [Example 216, (S)-2-(1-(2-methoxyethyl)-1H-pyrazol-4-yl)-N-(2-methyl-5-(4-(2-methylpyrrolidin-1-yl)butanamido)pyridin-3-yl)pyrazolo[5,1-b]thiazole-7-carboxamide] | 626 |

same assay, conditions: read-out: PDGFR Cellular IC50

| Structure (SMILES) | IC50 [nM] |
| --- | --- |
| Cc1cc(C(=O)NCCN2CCC3(CCC3)CC2)sc1NC(=O)c1cnn2cc(-c3cnn(C)c3)sc12 [Example 203, N-(5-((2-(7-azaspiro[3.5]nonan-7-yl)ethyl)carbamoyl)-3-methylthiophen-2-yl)-2-(1-methyl-1H-pyrazol-4-yl)pyrazolo[5,1-b]thiazole-7-carboxamide] | 449 |
| Cc1cc(C(=O)NCCN2CCc3ccccc3C2)sc1NC(=O)c1cnn2cc(-c3cnn(C)c3)sc12 [Example 204, N-(5-((2-(3,4-dihydroisoquinolin-2 (1H)-yl)ethyl)carbamoyl)-3-methylthiophen-2-yl)-2-(1-methyl-1H-pyrazol-4-yl)pyrazolo[5,1-b]thiazole-7-carboxamide] | 460 |
| CCc1cc(C(=O)NCCN2CCCC23CCC3)sc1NC(=O)c1cnn2cc(-c3cnn(C)c3)sc12 [Example 205, N-(5-((2-(5-azaspiro[3.4]octan-5-yl)ethyl)carbamoyl)-3-ethylthiophen-2-yl)-2-(1-methyl-1H-pyrazol-4-yl)pyrazolo[5,1-b]thiazole-7-carboxamide] | 562 |
| Cn1cc(-c2cn3ncc(C(=O)Nc4sc(C(=O)NCCN5CCCC56CCC6)cc4C#N)c3s2)cn1 [Example 206, N-(5-((2-(5-azaspiro[3.4]octan-5-yl)ethyl)carbamoyl)-3-cyanothiophen-2-yl)-2-(1-methyl-1H-pyrazol-4-yl)pyrazolo[5,1-b]thiazole-7-carboxamide] | > 3000 |
| Cn1cc(-c2cn3ncc(C(=O)Nc4cc(C(=O)NCCN5CCCC5(C)C)ccc4F)c3s2)cn1 [Example 207, N-(5-((2-(2,2-dimethylpyrrolidin-1-yl)ethyl)carbamoyl)-2-fluorophenyl)-2-(1-methyl-1H-pyrazol-4-yl)pyrazolo[5,1-b]thiazole-7-carboxamide] | 3.3 |
| Cc1ncc(C(=O)NCCN2C[C@H]3CC[C@@H]2C3)cc1NC(=O)c1cnn2cc(-c3cnn(C)c3C)sc12 [Example 208, N-(5-((2-((1R,4S)-2-azabicyclo[2.2.1]heptan-2-yl)ethyl)carbamoyl)-2-methylpyridin-3-yl)-2-(1,5-dimethyl-1H-pyrazol-4-yl)pyrazolo[5,1-b]thiazole-7-carboxamide] | 96 |
| Cc1ncc(C(=O)NCCN2CCCC23CCC3)cc1NC(=O)c1cnn2cc(-c3cnn(C)c3C)sc12 [Example 209, N-(5-((2-(5-azaspiro[3.4]octan-5-yl)ethyl)carbamoyl)-2-methyl-pyridin-3-yl)-2-(1,5-dimethyl-1H-pyrazol-4-yl)pyrazolo[5,1-b]thiazole-7-carboxamide] | 2.8 |
| Cc1ncc(C(=O)NCCN2CC3CCC2C3)cc1NC(=O)c1cnn2cc(-c3cnn(C)c3C)sc12 (stereo not shown) [Example 210, N-(5-((2-(2-azabicyclo[2.2.1]heptan-2-yl)ethyl)carbamoyl)-2-methylpyridin-3-yl)-2-(1,5-dimethyl-1H-pyrazol-4-yl)pyrazolo[5,1-b]thiazole-7-carboxamide] | 89.8 |
| Cc1ncc(C(=O)NCCN2C[C@H]3CC[C@@H]2C3)cc1NC(=O)c1cnn2cc(-c3cn(C)nc3C)sc12 [Example 211, N-(5-((2-((1R,4S)-2-azabicyclo[2.2.1]heptan-2-yl)ethyl)carbamoyl)-2-methylpyridin-3-yl)-2-(1,3-dimethyl-1H-pyrazol-4-yl)pyrazolo[5,1-b]thiazole-7-carboxamide] | 63.6 |
| Cc1ncc(C(=O)NCCN2CC3CCC2C3)cc1NC(=O)c1cnn2cc(-c3cn(C)nc3C)sc12 (stereo not shown) [Example 212, N-(5-((2-(2-azabicyclo[2.2.1]heptan-2-yl)ethyl)carbamoyl)-2-methylpyridin-3-yl)-2-(1,3-dimethyl-1H-pyrazol-4-yl)pyrazolo[5,1-b]thiazole-7-carboxamide] | 104 |
| Cc1ncc(C(=O)NCCN2CCCC23CCC3)cc1NC(=O)c1cnn2cc(-c3cn(C)nc3C)sc12 [Example 213, N-(5-((2-(5-azaspiro[3.4]octan-5-yl)ethyl)carbamoyl)-2-methylpyridin-3-yl)-2-(1,3-dimethyl-1H-pyrazol-4-yl)pyrazolo[5,1-b]thiazole-7-carboxamide] | 2.4 |
| Cc1ncc(C(=O)NCCN2CCCC23CCC3)cc1NC(=O)c1cnn2cc(-c3c(C)nn(C)c3C)sc12 [Example 214, N-(5-((2-(5-azaspiro[3.4]octan-5-yl)ethyl)carbamoyl)-2-methylpyridin-3-yl)-2-(1,3,5-trimethyl-1H-pyrazol-4-yl)pyrazolo[5,1-b]thiazole-7-carboxamide] | 3.9 |
| Cc1ncc(C(=O)NCCN2CCCC2(C)C)cc1NC(=O)c1cnn2cc(-n3ncc4cccnc43)sc12 [Example 217, N-(5-((2-(2,2-dimethylpyrrolidin-1-yl)ethyl)carbamoyl)-2-methylpyridin-3-yl)-2-(1H-pyrazolo[3,4-b]pyridin-1-yl)pyrazolo[5,1-b]thiazole-7-carboxamide] | 8.9 |
| Cc1ncc(C(=O)NCCN2CCCC2)cc1NC(=O)c1cnn2cc(-c3cn(C)nc3C)sc12 [Example 218, 2-(1,3-Dimethyl-1H-pyrazol-4-yl)-N-(2-methyl-5-((2-(pyrrolidin-1-yl)ethyl)carbamoyl)pyridin-3-yl)pyrazolo[5,1-b]thiazole-7-carboxamide] | 78.8 |
| Cc1ncc(C(=O)NCCN2CCCC2)cc1NC(=O)c1cnn2cc(-c3cnn(C)c3)sc12 [Example 219, 2-(1-Methyl-1H-pyrazol-4-yl)-N-(2-methyl-5-((2-(pyrrolidin-1-yl)ethyl)carbamoyl)pyridin-3-yl)pyrazolo[5,1-b]thiazole-7-carboxamide] | 123 |
| Cc1ncc(C(=O)NCCN2CCCC2)cc1NC(=O)c1cnn2cc(-c3cnn(C)c3C)sc12 [Example 220, 2-(1,5-Dimethyl-1H-pyrazol-4-yl)-N-(2-methyl-5-((2-(pyrrolidin-1-yl)ethyl)carbamoyl)pyridin-3-yl)pyrazolo[5,1-b]thiazole-7-carboxamide] | 59 |
| Cc1ncc(C(=O)NCCN2CCCC2(C)C)cc1NC(=O)c1cnn2cc(-c3cnn(CCC(O)CO)c3)sc12 (stereo not shown) [Example 221, 2-(1-(3,4-Dihydroxybutyl)-1H-pyrazol-4-yl)-N-(5-((2-(2,2-dimethylpyrrolidin-1-yl)ethyl)carbamoyl)-2-methylpyridin-3-yl)pyrazolo[5,1-b]thiazole-7-carboxamide] | 1710 |
| Cc1ncc(C(=O)NCCN2CCCC2)cc1NC(=O)c1cnn2cc(-c3cnn(CCC(O)CO)c3)sc12 (stereo not shown) [Example 222, 2-(1-(3,4-Dihydroxybutyl)-1H-pyrazol-4-yl)-N-(2-methyl-5-((2-(pyrrolidin-1-yl)ethyl)carbamoyl)pyridin-3-yl)pyrazolo[5,1-b]thiazole-7-carboxamide] | 989 |
| Cc1ncc(C(=O)NCCN2CCCC2)cc1NC(=O)c1cnn2cc(-c3c(C)nn(C)c3C)sc12 [Example 223, N-(2-methyl-5-((2-(pyrrolidin-1-yl)ethyl)carbamoyl)pyridin-3-yl)-2-(1,3,5-trimethyl-1H-pyrazol-4-yl)pyrazolo[5,1-b]thiazole-7-carboxamide] | 69.5 |
| Cc1ncc(C(=O)NCCN2CCCC2(C)C)cc1NC(=O)c1cnn2cc(-c3cn(C)nc3CO)sc12 [Example 224, N-(5-((2-(2,2-dimethylpyrrolidin-1-yl)ethyl)carbamoyl)-2-methylpyridin-3-yl)-2-(3-(hydroxymethyl)-1-methyl-1H-pyrazol-4-yl)pyrazolo[5,1-b]thiazole-7-carboxamide] | 903 |
| Cc1ncc(C(=O)NCCN2CCCC2)cc1NC(=O)c1cnn2cc(-c3cnn(CC(O)CO)c3)sc12 (stereo not shown) [Example 225, 2-(1-(2,3-Dihydroxypropyl)-1H-pyrazol-4-yl)-N-(2-methyl-5-((2-(pyrrolidin-1-yl)ethyl)carbamoyl)pyridin-3-yl)pyrazolo[5,1-b]thiazole-7-carboxamide] | > 2000 |
| COc1ncccc1-c1cn2ncc(C(=O)Nc3cc(C(=O)NCCN4CCCC4(C)C)cnc3C)c2s1 [Example 226, N-(5-((2-(2,2-Dimethylpyrrolidin-1-yl)ethyl)carbamoyl)-2-methylpyridin-3-yl)-2-(2-methoxypyridin-3-yl)pyrazolo[5,1-b]thiazole-7-carboxamide] | 3.2 |
| Cc1ncc(C(=O)NCCN2CCCC2)cc1NC(=O)c1cnn2cc(-c3cn(C)nc3C(F)(F)F)sc12 [Example 227, 2-(1-Methyl-3-(trifluoromethyl)-1H-pyrazol-4-yl)-N-(2-methyl-5-((2-(pyrrolidin-1-yl)ethyl)carbamoyl)pyridin-3-yl)pyrazolo[5,1-b]thiazole-7-carboxamide] | 438 |
| COc1ncccc1-c1cn2ncc(C(=O)Nc3cc(C(=O)NCCN4CCCC4C)cnc3C)c2s1 (stereo not shown) [Example 228, 2-(2-Methoxypyridin-3-yl)-N-(2-methyl-5-((2-(2-methylpyrrolidin-1-yl)ethyl)carbamoyl)pyridin-3-yl)pyrazolo[5,1-b]thiazole-7-carboxamide] | 5.6 |
| COc1ncccc1-c1cn2ncc(C(=O)Nc3cc(C(=O)NCCN4CCCC4)cnc3C)c2s1 [Example 229, 2-(2-Methoxypyridin-3-yl)-N-(2-methyl-5-((2-(pyrrolidin-1-yl)ethyl)carbamoyl)pyridin-3-yl)pyrazolo[5,1-b]thiazole-7-carboxamide] | 15.5 |
